# Data published in patent US8198330B2, “Therapeutic or prophylactic agent for diabetes, obesity, dyslipidemia or metabolic syndrome comprising benzylamine derivative or pharmaceutically acceptable acid addition salt thereof” (Toray Industries, Inc., priority 2008, dated 2012).
# Test system: anesthetized dog
# Assay: Effect on electrocardiogram of anesthetized dog
# Type: in vivo
# Settings: for QTc: Fridericia
# Procedure: A male beagle and a female beagle of 11 months of age were used in the test. A beagle was anesthetized by intravenous administration of thiopental sodium at 25 mg/kg, and fixed at the dorsal position under anesthesia by isoflurane inhalation with oxygen-nitrous oxide gas (1:1). Artificial respiration was carried out under the condition of 20 mL/kg and 15 times/minute. In measurement of the electrocardiogram, bipolar extremity leads (I, II and III) and augmented unipolar extremity leads (aVR, aVL and aVF) were recorded and QT interval determined by using an electrocardiogram analyzer for animals (α6000AX-D, Fukuda M-E Kogyo Co., Ltd.), as needle electrodes were placed on four extremities.
# The QTc value was calculated according to the Fridericia's formula: QTc=QT/^3√{square root over ( )}(R−R). For observation of arrhythmia in electrocardiographic waveform during test, compression electrocardiogram was printed out from the small memory card by using a long-term electrocardiogram analyzer (HS1000 system, Fukuda M-E Kogyo Co., Ltd.). The samples of the compound of Example 1 were prepared by dissolving the compound in physiological saline at concentrations of 12 mg/mL, 4 mg/mL and 1.2 mg/mL. After confirmation of stabilization of the electrocardiogram, the sample was administered through a needle (22G) previously placed in the side forearm subcutaneous vein, by using an automatic injector (Harvard digital infusion pump MODEL-22, HARVARD […]) over a period of 10 minutes.
# First, vehicle (physiological saline) was administered in an amount of 0.5 mL/kg and then, after 35 minutes, 1.2 mg/mL physiological saline solution of the compound of Example 1 was administered in an amount of 0.5 mL/kg. Additionally, 4 mg/mL or 12 mg/mL physiological saline solution of the compound of Example 1 was administered in an amount of 0.5 mL/kg at an interval of 65 minutes after administration. The QT interval and the QTc value were measured, in each administration above, 5 minutes before administration, immediately before start of administration, as well as 5, 10, 15 and 30 minutes after start of administration. Thus, the measured value 30 or 60 minutes after start of previous administration corresponds to the value 5 minutes before start of administration for the following application.
# [1] = Individual 1 (male), 0.6 mg/kg/10 min i.v., 0 min (immediately before start of administration)
# [2] = Individual 1 (male), 0.6 mg/kg/10 min i.v., 5 min after start of administration
# [3] = Individual 1 (male), 0.6 mg/kg/10 min i.v., 10 min after start of administration
# [4] = Individual 1 (male), 0.6 mg/kg/10 min i.v., 15 min after start of administration
# [5] = Individual 1 (male), 0.6 mg/kg/10 min i.v., 30 min after start of administration
# [6] = Individual 1 (male), 0.6 mg/kg/10 min i.v., 45 min after start of administration
# [7] = Individual 1 (male), 0.6 mg/kg/10 min i.v., 60 min after start of administration
# [8] = Individual 1 (male), 2 mg/kg/10 min i.v., 0 min (immediately before start of administration)
# [9] = Individual 1 (male), 2 mg/kg/10 min i.v., 5 min after start of administration
# [10] = Individual 1 (male), 2 mg/kg/10 min i.v., 10 min after start of administration
# [11] = Individual 1 (male), 2 mg/kg/10 min i.v., 15 min after start of administration
# [12] = Individual 1 (male), 2 mg/kg/10 min i.v., 30 min after start of administration
# [13] = Individual 1 (male), 2 mg/kg/10 min i.v., 45 min after start of administration
# [14] = Individual 1 (male), 2 mg/kg/10 min i.v., 60 min after start of administration
# [15] = Individual 1 (male), 6 mg/kg/10 min i.v., 0 min (immediately before start of administration)
# [16] = Individual 1 (male), 6 mg/kg/10 min i.v., 5 min after start of administration
# [17] = Individual 1 (male), 6 mg/kg/10 min i.v., 10 min after start of administration
# [18] = Individual 1 (male), 6 mg/kg/10 min i.v., 15 min after start of administration
# [19] = Individual 1 (male), 6 mg/kg/10 min i.v., 30 min after start of administration
# [20] = Individual 1 (male), 6 mg/kg/10 min i.v., 45 min after start of administration
# [21] = Individual 1 (male), 6 mg/kg/10 min i.v., 60 min after start of administration
# [22] = Individual 2 (female), 0.6 mg/kg/10 min i.v., 0 min (immediately before start of administration)
# [23] = Individual 2 (female), 0.6 mg/kg/10 min i.v., 5 min after start of administration
# [24] = Individual 2 (female), 0.6 mg/kg/10 min i.v., 10 min after start of administration
# [25] = Individual 2 (female), 0.6 mg/kg/10 min i.v., 15 min after start of administration
# [26] = Individual 2 (female), 0.6 mg/kg/10 min i.v., 30 min after start of administration
# [27] = Individual 2 (female), 0.6 mg/kg/10 min i.v., 45 min after start of administration
# [28] = Individual 2 (female), 0.6 mg/kg/10 min i.v., 60 min after start of administration
# [29] = Individual 2 (female), 2 mg/kg/10 min i.v., 0 min (immediately before start of administration)
# [30] = Individual 2 (female), 2 mg/kg/10 min i.v., 5 min after start of administration
# [31] = Individual 2 (female), 2 mg/kg/10 min i.v., 10 min after start of administration
# [32] = Individual 2 (female), 2 mg/kg/10 min i.v., 15 min after start of administration
# [33] = Individual 2 (female), 2 mg/kg/10 min i.v., 30 min after start of administration
# [34] = Individual 2 (female), 2 mg/kg/10 min i.v., 45 min after start of administration
# [35] = Individual 2 (female), 2 mg/kg/10 min i.v., 60 min after start of administration
# [36] = Individual 2 (female), 6 mg/kg/10 min i.v., 0 min (immediately before start of administration)
# [37] = Individual 2 (female), 6 mg/kg/10 min i.v., 5 min after start of administration
# [38] = Individual 2 (female), 6 mg/kg/10 min i.v., 10 min after start of administration
# [39] = Individual 2 (female), 6 mg/kg/10 min i.v., 15 min after start of administration
# [40] = Individual 2 (female), 6 mg/kg/10 min i.v., 30 min after start of administration
# [41] = Individual 2 (female), 6 mg/kg/10 min i.v., 45 min after start of administration
# [42] = Individual 2 (female), 6 mg/kg/10 min i.v., 60 min after start of administration
# [43] = anesthetized beagle, i.v. 0.6, 2 and 6 mg/kg/10 min
structure (smiles),measurement,setting,value
"COc1cc(CN[C@@H](C)[C@H](O)c2ccc(O)c(NS(C)(=O)=O)c2)cc(OC)c1 [Example 1, N-(5-((1R,2S)-2-(3,5-Dimethoxybenzylamino)-1-hydroxypropyl)-2-hydroxyphenyl)methanesulfonamide]",QT interval,[1],241 ms
same,QTc,[1],303 ms
same,QT interval,[2],228 ms
same,QTc,[2],299 ms
same,QT interval,[3],210 ms
same,QTc,[3],287 ms
same,QT interval,[4],205 ms
same,QTc,[4],280 ms
same,QT interval,[5],213 ms
same,QTc,[5],290 ms
same,QT interval,[6],220 ms
same,QTc,[6],296 ms
same,QT interval,[7],221 ms
same,QTc,[7],294 ms
same,QT interval,[8],218 ms
same,QTc,[8],293 ms
same,QT interval,[9],203 ms
same,QTc,[9],283 ms
same,QT interval,[10],203 ms
same,QTc,[10],283 ms
same,QT interval,[11],213 ms
same,QTc,[11],294 ms
same,QT interval,[12],218 ms
same,QTc,[12],297 ms
same,QT interval,[13],221 ms
same,QTc,[13],299 ms
same,QT interval,[14],225 ms
same,QTc,[14],304 ms
same,QT interval,[15],220 ms
same,QTc,[15],296 ms
same,QT interval,[16],210 ms
same,QTc,[16],292 ms
same,QT interval,[17],211 ms
same,QTc,[17],294 ms
same,QT interval,[18],210 ms
same,QTc,[18],291 ms
same,QT interval,[19],211 ms
same,QTc,[19],291 ms
same,QT interval,[20],235 ms
same,QTc,[20],320 ms
same,QT interval,[21],226 ms
same,QTc,[21],305 ms
same,QT interval,[22],240 ms
same,QTc,[22],293 ms
same,QT interval,[23],243 ms
same,QTc,[23],315 ms
same,QT interval,[24],236 ms
same,QTc,[24],310 ms
same,QT interval,[25],223 ms
same,QTc,[25],296 ms
same,QT interval,[26],218 ms
same,QTc,[26],297 ms
same,QT interval,[27],211 ms
same,QTc,[27],288 ms
same,QT interval,[28],213 ms
same,QTc,[28],292 ms
same,QT interval,[29],215 ms
same,QTc,[29],293 ms
same,QT interval,[30],210 ms
same,QTc,[30],292 ms
same,QT interval,[31],210 ms
same,QTc,[31],289 ms
same,QT interval,[32],210 ms
same,QTc,[32],288 ms
same,QT interval,[33],225 ms
same,QTc,[33],303 ms
same,QT interval,[34],220 ms
same,QTc,[34],298 ms
same,QT interval,[35],221 ms
same,QTc,[35],299 ms
same,QT interval,[36],220 ms
same,QTc,[36],296 ms
same,QT interval,[37],215 ms
same,QTc,[37],293 ms
same,QT interval,[38],211 ms
same,QTc,[38],289 ms
same,QT interval,[39],215 ms
same,QTc,[39],292 ms
same,QT interval,[40],213 ms
same,QTc,[40],289 ms
same,QT interval,[41],226 ms
same,QTc,[41],303 ms
same,QT interval,[42],220 ms
same,QTc,[42],294 ms
same,arrhythmia in electrocardiographic waveform,[43],no arrhythmia observed
same,prolongation of the QT interval,[43],did not cause prolongation of the QT interval
